# Test results from patent US10844064B2, “sGC stimulators” (Cyclerion Therapeutics, Inc., priority 2014, dated 2020).
# Several values for one entry are separate records, joined by “and”; a condition that tells them apart may be missing. Identical values can stand only once.
# Key:
# [1] = biological target: T1, soluble guanylate cyclase (sGC) (Homo sapiens, UniProt Q02108+Q02153); assay: sGC-HEK-cGMP assay with LC/MS detection (Example 2A); assay type: cell-based; settings: HEK293 cells, 10 μM DETA-NONOate, 20 min; concentration eliciting 50% of high control response (30 μM Compound Y); read-out: Absolute EC50 (nM) - binned
# T1 construct: endogenously expressing soluble guanylate cyclase (sGC); endogenous in cells; host or cells: HEK293
# T1 sequence (Q02108 1-690): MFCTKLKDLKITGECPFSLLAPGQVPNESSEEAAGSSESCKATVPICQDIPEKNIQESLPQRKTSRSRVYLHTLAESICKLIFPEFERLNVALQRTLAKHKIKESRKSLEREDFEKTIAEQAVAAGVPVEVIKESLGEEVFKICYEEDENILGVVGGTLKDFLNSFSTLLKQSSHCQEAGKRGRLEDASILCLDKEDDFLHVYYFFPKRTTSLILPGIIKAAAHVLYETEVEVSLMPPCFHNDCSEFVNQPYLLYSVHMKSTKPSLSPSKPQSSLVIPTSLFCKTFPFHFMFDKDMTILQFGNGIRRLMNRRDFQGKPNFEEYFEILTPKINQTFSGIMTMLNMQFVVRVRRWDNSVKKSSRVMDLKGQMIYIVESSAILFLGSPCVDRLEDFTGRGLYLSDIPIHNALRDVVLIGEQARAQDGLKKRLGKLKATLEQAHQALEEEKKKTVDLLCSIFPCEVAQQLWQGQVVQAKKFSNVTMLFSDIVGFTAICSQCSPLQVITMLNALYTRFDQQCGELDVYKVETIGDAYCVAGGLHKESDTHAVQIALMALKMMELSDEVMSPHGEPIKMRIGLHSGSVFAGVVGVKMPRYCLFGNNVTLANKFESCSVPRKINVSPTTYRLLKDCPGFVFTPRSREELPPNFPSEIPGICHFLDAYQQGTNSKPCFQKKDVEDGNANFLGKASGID
# T1 sequence (Q02153 1-619): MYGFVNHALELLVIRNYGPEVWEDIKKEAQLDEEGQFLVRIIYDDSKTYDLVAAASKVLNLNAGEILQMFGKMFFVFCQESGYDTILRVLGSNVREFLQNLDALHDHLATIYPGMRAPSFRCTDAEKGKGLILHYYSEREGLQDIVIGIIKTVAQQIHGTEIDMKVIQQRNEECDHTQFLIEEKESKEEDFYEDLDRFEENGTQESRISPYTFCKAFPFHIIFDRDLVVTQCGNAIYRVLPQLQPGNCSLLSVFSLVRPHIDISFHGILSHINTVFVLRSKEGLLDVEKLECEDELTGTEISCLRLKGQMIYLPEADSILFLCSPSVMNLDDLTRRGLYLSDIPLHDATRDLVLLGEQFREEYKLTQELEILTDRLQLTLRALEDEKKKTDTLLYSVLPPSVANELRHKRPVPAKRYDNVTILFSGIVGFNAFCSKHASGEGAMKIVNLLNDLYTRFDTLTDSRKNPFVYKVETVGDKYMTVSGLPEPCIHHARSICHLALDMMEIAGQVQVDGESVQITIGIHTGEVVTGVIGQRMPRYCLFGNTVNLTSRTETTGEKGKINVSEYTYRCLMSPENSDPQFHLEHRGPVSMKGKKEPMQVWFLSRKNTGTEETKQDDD
# Method: Human embryonic kidney cells (HEK293), endogenously expressing soluble guanylate cyclase (sGC), were used to evaluate the activity of test compounds. Compounds stimulating the sGC enzyme should cause an increase in the intracellular concentration of cGMP. HEK 293 cells were seeded in Dulbecco's Modification of Eagle's Medium supplemented with fetal bovine serum (10% final) and penicillin (100 U/mL)/streptomycin (100 μg/mL) in a 50 μL, volume at a density of 1.5×10^4 cells/well in a poly-D-lysine coated 384 well flat bottom plate. Cells were incubated overnight at 37° C. in a humidified chamber with 5% CO2. Medium was aspirated and cells were washed with 1× Hank's Buffered Saline Salt Solution (50 μL). Cells were then incubated for 15 minutes at 37° C. with 50 μL of a 0.5 mM 3-isobutyl-1-methylxanthine (IBMX) solution. Test article and Diethylenetriamine NONOate (DETA-NONOate) solutions (x μM concentration for test article solution and 10 μM concentration for DETA-NONOate solution; wherein x is one of the following concentrations);
# were then added to the assay mixture and the resulting mixture incubated at 37° C. for 20 minutes. After the 20 minute incubation, the assay mixture was aspirated and 10% acetic acid containing 150 ng/mL+3-cGMP (internal standard for LCMS) (50 μL) was added to the cells. The plate was incubated at 4° C. for 30 minutes in the acetic acid solution to stop the reaction and lyse the cells. The plates were then centrifuged at 1,000 g for 3 minutes at 4° C. and the supernatant transferred to a clean reaction plate for LCMS analysis.
# cGMP concentrations were determined from each sample using the LCMS conditions below (Table 2) and calculated standard curve. The standard curve was prepared in 10% acetic acid with 150 ng/mL+3cGMP (isotopically labelled cGMP with a weight 3 units higher than wild type) with the following final concentrations of cGMP in ng/mL: 1, 5, 10, 50, 100, 250, 500, 1000, 2000.
# (§1) Data were normalized to a high control using the following equation: 100*(Sample—Low Control)/(High Control—Low Control), where the low control is the average of 16 samples treated with 1% DMSO, and the high control is the average of 16 samples treated with 30 μM of Compound Y depicted below. Data were fit using a 4-parameter fit (log(agonist) vs. response variable slope) using GraphPad Prism Software v.5. n=2 for all compounds. […] Compounds failing to elicit a minimum response of 50% are reported as >30 μM. For compounds run in duplicate or n higher than 2, the result herein given is the geometric mean of the several results obtained.
# sGC enzyme = biological target: T2, sGC enzyme (Homo sapiens, UniProt Q02108+Q02153); assay: cGMP GloSensor cell-based assay, 384-well format (Example 2B); settings: HEK293 GloSensor 40F cGMP cells, 10 μM DETA-NONOate; 50% of high control response (Compound Y); read-out: sGC_HEK_GloSensor EC50/IC50 Abs (Norm) (nM) Binned
# T2 construct: host or cells: HEK293 expressing GloSensor 40F cGMP
# T2 sequence (Q02108 1-690): T1 sequence (Q02108 1-690)
# T2 sequence (Q02153 1-619): T1 sequence (Q02153 1-619)
# Method: as §1
# Human embryonic kidney cells (HEK293) cells expressing GloSensor™ 40F cGMP (Part No: CS182801, Promega) were used to evaluate the activity of test compounds. The luminescent biosensors (engineered luciferase) that were incorporated into these cells detect cGMP formed by the compounds stimulating the sGC enzyme and emit luminescence.
# cGMP GloSensor cells were maintained in Dulbecco's Modification of Eagle's Medium (DMEM) supplemented with fetal bovine serum (FBS) (10% final) and hygromycine (200 μg/ml). The day before assay, cells were plated in DMEM with 10% FBS in a 50 μL volume at a density of 1.5×10^4 cells/well in a poly-D-lysine coated 384-well flat white-bottom plate (Corning Cat No 35661). Cells were incubated overnight at 37° C. in a humidified chamber with 5% CO2. The next day, medium was removed and cells were replaced with 40 μl/well of GloSensor™, […] (Promega Cat No E1291). Cells were treated for 90 minutes at 25° C. to allow the substrate to equilibrate in the cells. Test compounds and Diethylenetriamine NONOate (DETA-NONOate) was diluted to […] in serum-free CO2 independent medium and serally diluted at 4× dilutions to create 5× dose curve from which 10 ul was added to the wells (x uM concentration for test compound solution and 10 μM concentration for DETA-NONOate solution; wherein x is one of the following final concentrations).
# For the kinetics studies, luminescense was measured right away for 0.2 sec per well with Envision (Perkin Elmer model No). For endpoint SAR screening, data were collected after 55 min incubation at room temperature.
# Data analysis was carried out as indicated above in Example 2A.
# obese mice = settings: cited from earlier work
# [2] = tested on: Guinea pig tracheal smooth muscle; assay: Electrical field stimulated guinea pig tracheal smooth muscle contraction (ex vivo); settings: sub-maximal EFS, cumulative dose response curve, three animals pooled; 95% Cl 0.78-0.94; read-out: IC50 (inhibition of EFS-induced baseline contraction)
# Source text: Electrical Field Stimulated Guinea Pig Tracheal Smooth Muscle In Vitro (ex vivo) Model for the Assessment of Bronchodilation.
# Animals: Guinea pig, Dunkin Hartley, male, Full barrier-bred and certified free of specific micro-organisms on receipt 525-609 g on the experimental day, Harlan UK Ltd. Guinea pigs are housed in a group of 4 in solid-bottomed cages with Gold Flake bedding in a controlled environment (airflow, temperature and humidity). Food (FD1, Special Diet Services) and water are provided ad libitum.
# On each experimental day, a guinea pig is killed by exposure to a rising concentration of CO2 and the trachea removed. […] Tissues are washed with Kreb's buffer and stimulated using the previously determined sub-maximal voltage for 1 hour to establish a stable baseline contraction prior to assessment of compound activity.
# A cumulative dose response curve (DRC) to each test substance is then performed and changes in smooth muscle contraction measured. The effect of each test substance in each experiment is expressed as a percentage inhibition of the baseline contraction, normalized to the relevant vehicle controls. […] The data from all three experiments are pooled, the DRC plotted, and the test substance potency and efficacy determined.
# [3] = tested on: lambs with acute pulmonary hypertension; settings: inhaled microparticles, awake lambs, cited from earlier work; for pulmonary vasodilation: U-46619 infusion to mean pulmonary arterial pressure 35 mm Hg; for effect on mean arterial pressure / transpulmonary cGMP release / systemic arterial oxygenation: U-46619 infusion
SMILES,pulmonary vasodilation [3],effect on mean arterial pressure [3],transpulmonary cGMP release [3],also measured
"Cc1cc(-c2nc(N)c3c(n2)NC(=O)C3(C)C)nn1Cc1ccccc1F [Compound I-71, 4-amino-2-(1-(2-fluorobenzyl)-5-methyl-1H-pyrazol-3-yl)-5,5-dimethyl-5H-pyrrolo[2,3-d]pyrimidin-6(7H)-one]",–,–,–,EC50 [1]: > 1000 nM; EC50 (sGC enzyme): 100 to 1000 nM
O=C(O)CCCCN(CCc1cc(F)ccc1OCc1ccc(-c2ccc(C(F)(F)F)cc2)cc1)Cc1ccc(C(=O)O)cc1 [BAY 60-2770],–,–,–,effect on overactive bladder (obese mice): ameliorates overactive bladder
CC(C)[N+]1(C)[C@@H]2CC[C@H]1CC(OC(=O)C(CO)c1ccccc1)C2 (some centres unmarked) [Ipratropium bromide],–,–,–,IC50 [2]: 0.86 nM
Nc1nc(-c2nn(Cc3ccccc3F)c3ncccc23)ncc1C1CC1 [BAY 41-2272],dose dependent pulmonary vasodilation,without significant effect,increased transpulmonary cGMP release,–
Cc1cc(-c2ncc3c(n2)NC(=O)C3(C)C)nn1Cc1ccccc1F [Compound I-72],–,–,–,EC50 [1]: > 1000 nM; EC50 (sGC enzyme): < 100 nM and 100 to 1000 nM
Nc1nc(-c2nn(Cc3ccccc3F)c3ncccc23)nc(N)c1N1CCOCC1 [BAY 41-8543],dose dependent pulmonary vasodilation,without significant effect,increased transpulmonary cGMP release,systemic arterial oxygenation [3]: increased systemic arterial oxygenation
O=C(O)CCCCN(CCc1ccccc1OCc1ccc(CCc2ccccc2)cc1)Cc1ccc(C(=O)O)cc1 [BAY 58-2667],dose dependent pulmonary vasodilation,without significant effect,increased transpulmonary cGMP release,systemic arterial oxygenation [3]: increased systemic arterial oxygenation
